System: 282377-053-R-J1-PDC complex spheroids, viability
Test: Anticancer human tumor 282377-053-R-J1-PDC patient-derived colon adenocarcinoma cell line growth inhibition [GQUAD]
Settings: for IC50: curve of first compound; for viability, T/C: stronger effect = lower value
Description: DNA G-quadruplex Stabilizer Agents in Combinations in Complex Spheroids
A high-throughput screen of multi-cell type tumor spheroids was designed to identify active combinations of DNA G-quadruplex stabilizer agents and targeted small molecules. Complex spheroids include a stromal component modeled by human endothelial cells (HUVEC) and fibroblasts modeled by human mesenchymal stem cells (MSCs). The concentration ranges selected for each drug and investigational agent were based upon clinically achievable concentrations if the clinical Cmax of the agent was known.
Compounds. The drugs and investigational agents: pidnarulex (CX-5461; NSC782164), APTO-253 (NSC789042), BRACO-19 (NSC847499), peposertib (NSC802822), ceralasertib (NSC780249), elimusertib (NSC800525), camonsertib (NSC841442), AZD-1390 (NSC803789), olaparib (NSC753686), talazoparib (NSC767125), ART-558 (NSC835418), sotorasib (NSC818433), MRTX-1133 (NSC836407), SN-38 (NSC673596), topotecan (NSC609699), etoposide (NSC141540), doxorubicin (NSC123127), gemcitabine (NSC613327), 5-fluorouracil (NSC19893), paclitaxel (NSC125973), vemurafenib (NSC761431), panobinostat (NSC761190), R-306465 (JNJ-16241199; NSC773264), adavosertib (NSC754352), TP-3654 (NSC805149), carboplatin (NSC241240), KSQ-4279 (NSC840948), and staurosporine (NSC755774) were obtained from the National Cancer Institute (NCI) Developmental Therapeutics Program Chemical Repository (34). The FDA-approved anticancer drug set is available from the NCI Developmental Therapeutics Program. […] The stock solutions were prepared in dimethyl sulfoxide (DMSO, Sigma-Aldrich, St. Louis, MO, cat. D2650) at 800-fold the tested concentration and stored at -70 degrees C prior to their use. All drugs and investigational agents were tested over a range starting from a high concentration at or near the clinical Cmax and decreasing in half-log increments. If the clinical Cmax for an agent had not been determined, the highest concentration tested was 10 microM.
2.3 Cell Culture. All cells were maintained in an incubator at 37 degrees C and 5% CO2 with 95% humidity. The PDC lines were cultured according to standard operating procedures established by the NCI PDMR. All PDCs were thawed and cultured in Matrigel-coated flasks prepared with a working solution of 1X Ham's F-12 nutrient mix, without supplementation (Invitrogen, cat. 11765054), 100 U/mL penicillin-streptomycin (Invitrogen, cat. 15140122), and 2.5% Matrigel (Corning Inc., cat. 354248) for the first three passages. The 857933-349-R-J2-PDC line was cultured in 6C/Colon 1B media, which includes advanced DMEM/F-12 (Thermo Fisher Scientific, cat. 12634028), 10 mM HEPES (Thermo Fisher Scientific, cat. 15630080), 1X GlutaMAX supplement (Thermo Fisher Scientific, cat. 35050061), 0.1 mg/mL primocin (InvivoGen, cat. ant-pm-2), 10% defined fetal bovine serum, heat inactivated (HyClone Laboratories Inc., cat. SH30070.03HI), 50% L-WRN conditioned media (ATCC, cat. CRL-3276), 1.25 mM N-Acetyl-L-cysteine (Sigma-Aldrich, cat. A9165), 10 mM nicotinamide (Sigma-Aldrich, cat. N0636), 1X B-27 supplement (Thermo Fisher Scientific, cat. 17504044), 1X N-2 supplement (Thermo Fisher Scientific, cat. 17502048), 10 microM Y-27632 dihydrochloride (Tocris Bioscience, cat. 1254), and 50 ng/mL human EGF recombinant protein (Thermo Fisher Scientific, cat. PHG0311). The 485176-168-R4-J1-PDC line was cultured in Panc media, which includes all 6C/Colon 1B media components plus 100 ng/mL human FGF-10 (Thermo Fisher Scientific, cat. 100-26), 500 nM SB-431542 (Selleckchem, cat. S1067), and gastrin (Tocris, cat. 3006).
[…]

[1] = second compound 0.0316 µM, first compound 0.0316 µM
[2] = second compound 0.0316 µM, first compound 0.316 µM
[3] = second compound 0.1 µM, first compound 0.0316 µM
[4] = second compound 0.1 µM, first compound 0.316 µM
[5] = second compound 0.316 µM, first compound 0.0316 µM
[6] = second compound 0.316 µM, first compound 0.316 µM
[7] = second compound 1 µM, first compound 0.0316 µM
[8] = second compound 1 µM, first compound 0.316 µM
[9] = second compound 3.16 µM, first compound 0.0316 µM
[10] = second compound 3.16 µM, first compound 0.316 µM
[11] = second compound 10 µM, first compound 0.0316 µM
[12] = second compound 10 µM, first compound 0.316 µM
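Also: spheroids exposed to compounds for 7 days before readout.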
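For viability, T/C in this document: percent of vehicle DMSO control viability with 100% = untreated-like growth.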

SMILES: CC(=O)O[C@H]1C(=O)[C@@]2(C)[C@H]([C@H](OC(=O)c3ccccc3)[C@]3(O)C[C@H](OC(=O)[C@H](O)[C@@H](NC(=O)c4ccccc4)c4ccccc4)C(C)=C1C3(C)C)[C@]1(OC(C)=O)CO[C@@H]1C[C@@H]2O + Cc1[nH]c2ccc(F)cc2c1-c1nc2c3cccnc3c3ncccc3c2[nH]1
- IC50 (second compound 0.0316 µM): 519 nM
- IC50 (second compound 0.1 µM): 584 nM
- IC50 (second compound 0.316 µM): 519 nM
- IC50 (second compound 1 µM): 617 nM
- IC50 (second compound 3.16 µM): 424 nM
- IC50 (second compound 10 µM): < 31.6 nM
- viability, T/C [1]: 115%
- viability, T/C (second compound 0.0316 µM, first compound 0.1 µM): 112%
- viability, T/C [2]: 84.6%
- viability, T/C (second compound 0.0316 µM, first compound 1 µM): 4.01%
- viability, T/C (second compound 0.0316 µM, first compound 3.16 µM): 0.1%
- viability, T/C (second compound 0.0316 µM, first compound 10 µM): 0.12%
- viability, T/C [3]: 108%
- viability, T/C (second compound 0.1 µM, first compound 0.1 µM): 107%
- viability, T/C [4]: 106%
- viability, T/C (second compound 0.1 µM, first compound 1 µM): 3.64%
- viability, T/C (second compound 0.1 µM, first compound 3.16 µM): 0.06%
- viability, T/C (second compound 0.1 µM, first compound 10 µM): 0.09%
- viability, T/C [5]: 107%
- viability, T/C (second compound 0.316 µM, first compound 0.1 µM): 111%
- viability, T/C [6]: 79.5%
- viability, T/C (second compound 0.316 µM, first compound 1 µM): 10.8%
- viability, T/C (second compound 0.316 µM, first compound 3.16 µM): 0.05%
- viability, T/C (second compound 0.316 µM, first compound 10 µM): 0.21%
- viability, T/C [7]: 116%
- viability, T/C (second compound 1 µM, first compound 0.1 µM): 90.3%
- viability, T/C [8]: 110%
- viability, T/C (second compound 1 µM, first compound 1 µM): 9.92%
- viability, T/C (second compound 1 µM, first compound 3.16 µM): 0.04%
- viability, T/C (second compound 1 µM, first compound 10 µM): 0.07%
- viability, T/C [9]: 92.8%
- viability, T/C (second compound 3.16 µM, first compound 0.1 µM): 109%
- viability, T/C [10]: 66%
- viability, T/C (second compound 3.16 µM, first compound 1 µM): 4.89%
- viability, T/C (second compound 3.16 µM, first compound 3.16 µM): 0.11%
- viability, T/C (second compound 3.16 µM, first compound 10 µM): 0.1%
- viability, T/C [11]: 36.7%
- viability, T/C (second compound 10 µM, first compound 0.1 µM): 43.9%
- viability, T/C [12]: 59.1%
- viability, T/C (second compound 10 µM, first compound 1 µM): 10.1%
- viability, T/C (second compound 10 µM, first compound 3.16 µM): 0.17%
- viability, T/C (second compound 10 µM, first compound 10 µM): 0.46%

SMILES: CC[C@@]1(O)C(=O)OCc2c1cc1n(c2=O)Cc2cc3c(CN(C)C)c(O)ccc3nc2-1 + Cc1[nH]c2ccc(F)cc2c1-c1nc2c3cccnc3c3ncccc3c2[nH]1
- IC50 (second compound 0.0316 µM): > 316 nM
- IC50 (second compound 0.1 µM): > 316 nM
- IC50 (second compound 0.316 µM): > 316 nM
- IC50 (second compound 1 µM): > 316 nM
- IC50 (second compound 3.16 µM): 130 nM
- IC50 (second compound 10 µM): < 0.999 nM
- viability, T/C (second compound 0.0316 µM, first compound 0.000999 µM): 92.6%
- viability, T/C (second compound 0.0316 µM, first compound 0.00316 µM): 117%
- viability, T/C (second compound 0.0316 µM, first compound 0.00999 µM): 116%
- viability, T/C [1]: 93.1%
- viability, T/C (second compound 0.0316 µM, first compound 0.0999 µM): 91.5%
- viability, T/C [2]: 49.9%
- viability, T/C (second compound 0.1 µM, first compound 0.000999 µM): 126%
- viability, T/C (second compound 0.1 µM, first compound 0.00316 µM): 93.2%
- viability, T/C (second compound 0.1 µM, first compound 0.00999 µM): 87.1%
- viability, T/C [3]: 92%
- viability, T/C (second compound 0.1 µM, first compound 0.0999 µM): 93.2%
- viability, T/C [4]: 58.8%
- viability, T/C (second compound 0.316 µM, first compound 0.000999 µM): 80.3%
- viability, T/C (second compound 0.316 µM, first compound 0.00316 µM): 104%
- viability, T/C (second compound 0.316 µM, first compound 0.00999 µM): 103%
- viability, T/C [5]: 94.2%
- viability, T/C (second compound 0.316 µM, first compound 0.0999 µM): 84%
- viability, T/C [6]: 61.9%
- viability, T/C (second compound 1 µM, first compound 0.000999 µM): 86.6%
- viability, T/C (second compound 1 µM, first compound 0.00316 µM): 109%
- viability, T/C (second compound 1 µM, first compound 0.00999 µM): 94.8%
- viability, T/C [7]: 102%
- viability, T/C (second compound 1 µM, first compound 0.0999 µM): 94.8%
- viability, T/C [8]: 54.3%
- viability, T/C (second compound 3.16 µM, first compound 0.000999 µM): 77.8%
- viability, T/C (second compound 3.16 µM, first compound 0.00316 µM): 79.4%
- viability, T/C (second compound 3.16 µM, first compound 0.00999 µM): 81.4%
- viability, T/C [9]: 58.3%
- viability, T/C (second compound 3.16 µM, first compound 0.0999 µM): 64%
- viability, T/C [10]: 24.5%
- viability, T/C (second compound 10 µM, first compound 0.000999 µM): 36.6%
- viability, T/C (second compound 10 µM, first compound 0.00316 µM): 35.9%
- viability, T/C (second compound 10 µM, first compound 0.00999 µM): 48.3%
- viability, T/C [11]: 41.5%
- viability, T/C (second compound 10 µM, first compound 0.0999 µM): 31.3%
- viability, T/C [12]: 17.5%
